Experimental data: patent publication US20220354949A1, “NOVEL COMPOUNDS” (XENIOPRO GmbH, priority 2018, published 2022)

Tested on: Notch signaling (human Notch1 receptor, hNotch1ΔE, CSL luciferase reporter in HeLa cells)
Experiment: Notch reporter assay (dual luciferase, HeLa cells transfected with hNotch1ΔE)
Assay type: cell-based
Conditions: compounds and controls at 10 μM
Text: The activation level of Notch signaling can be quantified in vitro reliably by measuring the expression levels of Notch specific target genes. This can be accomplished by the quantification of corresponding mRNA or protein of a particular Notch target gene. Alternatively, cells can be genetically modified to carry a luciferase gene as an artificial Notch target gene, which is expressed in dependence of Notch activity. In this setting, Notch signaling levels can be quantified by measuring the luciferase-derived bioluminescence values.
An according Notch-reporter assay, i.e. a luciferase-based luminescence readout, was used here to quantify the ability of the claimed compounds to augment Notch signaling in a cellular system. […] After 24 hours of transfection, the transfected cells were carefully detached from the dish using 0.5 mM EDTA in PBS and seeded into 96-well plates suitable for luminescence readouts (CORNING, #3610) at 10′000 cells per well. […] Directly after the lysis, first the Firefly and then the Renilla luciferase values were measured consecutively from the same well with a luminescence reader immediately after applying 15 μL per well each of the corresponding enzyme substrates needed to create the luminescence signals (Promega, Dual-Luciferase® Reporter Assay System, #E1910). […]

Oc1ccc(C=Cc2cc(O)cc(O)c2)cc1 [RES, Resveratrol]
Activity Range: weighted arithmetic mean (AVEw) of double-normalized Notch-reporter luminescence, relative to DMSO basis level of 1.0: 1.9 ± 0.5
